Counter-ions that a name gives are not always drawn. Like-named read-outs stand apart in the source and are kept apart here.
Tests used:
Format in all cases: biochemical
[1] = target: T1, recombinant human MAO-A (monoamine oxidase-A) (Homo sapiens, UniProt P21397); experiment: Amplex Red HRP-coupled amine oxidase activity evaluation, recombinant human MAO-A; conditions: substrate 0.5 mM tyramine; read-out: Inhibitory Activity (IC50, nM) MAO-A
T1 construct: purchased Sigma-Aldrich
T1 sequence (P21397 1-527): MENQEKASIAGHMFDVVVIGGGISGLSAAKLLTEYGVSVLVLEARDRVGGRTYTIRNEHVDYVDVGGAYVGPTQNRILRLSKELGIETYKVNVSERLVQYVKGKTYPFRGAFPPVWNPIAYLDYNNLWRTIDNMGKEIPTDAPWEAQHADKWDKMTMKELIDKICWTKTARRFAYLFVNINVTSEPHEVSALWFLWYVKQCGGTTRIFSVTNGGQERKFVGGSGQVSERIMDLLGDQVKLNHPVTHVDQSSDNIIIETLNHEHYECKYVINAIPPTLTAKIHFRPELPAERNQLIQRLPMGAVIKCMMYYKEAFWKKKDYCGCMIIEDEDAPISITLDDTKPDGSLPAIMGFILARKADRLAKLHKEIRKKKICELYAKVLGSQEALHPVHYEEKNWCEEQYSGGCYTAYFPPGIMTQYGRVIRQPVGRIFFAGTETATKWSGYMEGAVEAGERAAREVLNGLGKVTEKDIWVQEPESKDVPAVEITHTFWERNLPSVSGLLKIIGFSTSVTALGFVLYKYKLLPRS

[2] = target: T2, recombinant human DAO (diamine oxidase) (Homo sapiens, UniProt P19801); experiment: Amplex Red HRP-coupled amine oxidase activity evaluation, recombinant human DAO
T2 construct: purchased R&D systems
T2 sequence (P19801 20-751): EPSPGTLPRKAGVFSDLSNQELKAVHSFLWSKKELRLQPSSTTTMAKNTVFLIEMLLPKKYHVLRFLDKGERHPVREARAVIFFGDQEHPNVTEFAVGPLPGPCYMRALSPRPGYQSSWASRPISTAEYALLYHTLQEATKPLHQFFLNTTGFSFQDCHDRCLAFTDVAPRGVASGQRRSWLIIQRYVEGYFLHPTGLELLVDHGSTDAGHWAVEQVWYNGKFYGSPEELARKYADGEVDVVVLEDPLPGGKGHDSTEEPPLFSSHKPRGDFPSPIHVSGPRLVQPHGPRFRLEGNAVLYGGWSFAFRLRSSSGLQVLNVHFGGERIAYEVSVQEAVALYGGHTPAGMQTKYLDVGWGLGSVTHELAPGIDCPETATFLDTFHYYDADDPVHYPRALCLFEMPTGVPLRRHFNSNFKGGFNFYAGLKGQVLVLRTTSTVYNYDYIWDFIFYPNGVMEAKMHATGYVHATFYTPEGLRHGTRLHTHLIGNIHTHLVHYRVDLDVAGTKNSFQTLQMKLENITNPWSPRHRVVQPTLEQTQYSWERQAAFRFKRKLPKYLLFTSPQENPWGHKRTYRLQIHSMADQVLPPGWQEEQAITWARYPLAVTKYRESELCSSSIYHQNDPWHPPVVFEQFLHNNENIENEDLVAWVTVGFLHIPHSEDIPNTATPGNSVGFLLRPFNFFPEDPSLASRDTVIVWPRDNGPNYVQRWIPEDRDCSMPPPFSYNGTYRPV

[3] = target: T3, recombinant human VAP-1 (Homo sapiens, UniProt Q16853); experiment: Amplex Red HRP-coupled amine oxidase activity evaluation, recombinant human VAP-1; conditions: substrate 1 mM benzylamine; 30 min preincubation at 37° C.; read-out: Inhibitory Activity (IC50, nM) human VAP-1
T3 construct: purchased R&D systems
T3 sequence (Q16853 1-763): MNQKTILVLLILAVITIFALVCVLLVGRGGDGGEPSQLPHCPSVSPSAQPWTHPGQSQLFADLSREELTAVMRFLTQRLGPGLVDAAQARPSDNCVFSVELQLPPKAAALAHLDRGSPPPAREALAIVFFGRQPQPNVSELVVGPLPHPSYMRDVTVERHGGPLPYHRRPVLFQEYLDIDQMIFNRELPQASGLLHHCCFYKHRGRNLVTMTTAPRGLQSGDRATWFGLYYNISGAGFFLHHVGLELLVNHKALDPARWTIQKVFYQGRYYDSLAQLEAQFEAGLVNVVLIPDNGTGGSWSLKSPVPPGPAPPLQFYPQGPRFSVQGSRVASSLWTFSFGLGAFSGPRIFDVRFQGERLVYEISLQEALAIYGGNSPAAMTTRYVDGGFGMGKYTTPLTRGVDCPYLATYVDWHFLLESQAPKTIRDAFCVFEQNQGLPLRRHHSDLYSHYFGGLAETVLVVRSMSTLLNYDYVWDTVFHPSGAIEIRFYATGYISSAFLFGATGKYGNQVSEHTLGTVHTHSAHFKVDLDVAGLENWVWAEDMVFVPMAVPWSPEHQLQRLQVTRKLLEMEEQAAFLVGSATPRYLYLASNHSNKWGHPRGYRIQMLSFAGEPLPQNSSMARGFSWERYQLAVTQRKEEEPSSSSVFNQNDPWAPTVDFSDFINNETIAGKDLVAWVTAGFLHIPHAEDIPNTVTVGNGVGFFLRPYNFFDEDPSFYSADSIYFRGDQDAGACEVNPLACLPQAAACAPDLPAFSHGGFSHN
How it was run: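 Steps: 8-point 1:3 compound dilutions (final DMSO <1%); 30 min at 37° C with human VAP-1 in 50 mM NaPi pH 7.4; addition of a mix holding 200 uM Amplex Red, 1 mM benzylamine and 1 U/mL HRP; kinetic fluorescence over 1-2 h. Four-parameter logistic IC50.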

[4] = target: T4, recombinant human MAO-B (monoamine oxidase-B) (Homo sapiens, UniProt P27338); experiment: Amplex Red HRP-coupled amine oxidase activity evaluation, recombinant human MAO-B; conditions: substrate 1 mM benzylamine; read-out: Inhibitory Activity (IC50, nM) MAO-B
T4 construct: purchased Sigma-Aldrich
T4 sequence (P27338 1-520): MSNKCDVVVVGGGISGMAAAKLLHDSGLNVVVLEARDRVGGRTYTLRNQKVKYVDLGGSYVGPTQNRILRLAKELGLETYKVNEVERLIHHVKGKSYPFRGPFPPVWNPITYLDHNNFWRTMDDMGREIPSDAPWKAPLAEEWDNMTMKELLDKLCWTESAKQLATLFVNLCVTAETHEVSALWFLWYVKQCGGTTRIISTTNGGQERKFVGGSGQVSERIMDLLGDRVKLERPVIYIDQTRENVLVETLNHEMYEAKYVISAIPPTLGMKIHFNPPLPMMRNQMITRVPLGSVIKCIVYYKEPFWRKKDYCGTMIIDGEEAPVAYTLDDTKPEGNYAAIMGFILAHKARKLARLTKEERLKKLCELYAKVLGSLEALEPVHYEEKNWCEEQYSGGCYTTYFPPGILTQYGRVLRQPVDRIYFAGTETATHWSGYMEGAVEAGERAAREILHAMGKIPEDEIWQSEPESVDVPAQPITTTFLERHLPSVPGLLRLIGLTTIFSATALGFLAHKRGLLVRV

[5] = substrate 1 mM putrescine, read-out: Inhibitory Activity (IC50, nM) DAO

Row | Structure (SMILES) | IC50 [1] [nM] | IC50 [2, 5] [nM] | IC50 [3] [nM] | IC50 [4] [nM] | IC50 [2] [nM]
1 | CCn1cc(-c2ccc(Cn3ccn(CC(CN)=C(F)F)c3=O)s2)ccc1=O [Example 50, 5-[5-[[3-[2-(aminomethyl)-3,3-difluoro-allyl]-2-oxo-imidazol-1-yl]methyl]-2-thienyl]-1-ethyl-pyridin-2-one trifluoroacetate] | > 100000 | 8.3 | > 100 | > 100000 | –
2 | CN1C(=O)CCc2cc(-c3ccc(Cn4ccn(CC(CN)=C(F)F)c4=O)s3)ccc21 [Example 51, 6-[5-[[3-[2-(aminomethyl)-3,3-difluoro-allyl]-2-oxo-imidazol-1-yl]methyl]-2-thienyl]-1-methyl-3,4-dihydroquinolin-2-one trifluoroacetate] | > 100000 | 206 | 1.9 | 63100 | –
3 | CCn1cc(-c2ccc(Cn3ccn(CC(CN)=C(F)F)c3=O)s2)cn1 [Example 52, 1-[2-(aminomethyl)-3,3-difluoro-allyl]-3-[[5-(1-ethylpyrazol-4-yl)-2-thienyl]methyl]imidazol-2-one trifluoroacetate] | > 100000 | 192 | > 100 | 60200 | –
4 | NCC(Cn1ccn(Cc2ccc(-c3ccn4ncnc4c3)s2)c1=O)=C(F)F [Example 53, 1-[2-(aminomethyl)-3,3-difluoro-allyl]-3-[[5-([1,2,4]triazolo[1,5-a]pyridin-7-yl)-2-thienyl]methyl]imidazol-2-one trifluoroacetate] | > 100000 | 38200 | > 100 | 80500 | –

Further lines, results first:

Row | IC50 [1] [nM] | IC50 [2, 5] [nM] | IC50 [3] [nM] | IC50 [4] [nM] | IC50 [2] [nM] | Structure (SMILES)
5 | 63100 | 1050 | 0.5 | 6830 | – | CN1C(=O)CCc2cc(-c3ccc(Cn4nnn(CC(CN)=C(F)F)c4=O)s3)ccc21 [Example 46, 6-[5-[[4-[2-(aminomethyl)-3,3-difluoro-allyl]-5-oxo-tetrazol-1-yl]methyl]-2-thienyl]-1-methyl-3,4-dihydroquinolin-2-one trifluoroacetate]
6 | > 100000 | 8170 | 0.5 | 15100 | – | CCn1cc(-c2ccc(Cn3nnn(CC(CN)=C(F)F)c3=O)s2)cn1 [Example 47, 1-[2-(aminomethyl)-3,3-difluoro-allyl]-4-[[5-(1-ethylpyrazol-4-yl)-2-thienyl]methyl]tetrazol-5-one trifluoroacetate]
7 | 36900 | – | 2.9 | 4400 | 56 | NCC(Cn1nnn(-c2cncc(-c3ccc4c(c3)OCO4)c2)c1=O)=C(F)F [Example 48, 1-[2-(aminomethyl)-3,3-difluoro-allyl]-4-[5-(1,3-benzodioxol-5-yl)-3-pyridyl]tetrazol-5-one trifluoroacetate]
8 | 52200 | – | 0.9 | 7080 | 3.5 | Cc1cc(-c2cncc(-n3nnn(CC(CN)=C(F)F)c3=O)c2)cc2c1NC(=O)CC2 [Example 49, 6-[5-[4-[2-(aminomethyl)-3,3-difluoro-allyl]-5-oxo-tetrazol-1-yl]-3-pyridyl]-8-methyl-3,4-dihydro-1H-quinolin-2-one trifluoroacetate]
